Measured values published in patent publication EP3131902B1, “COMPOUNDS AS MODULATORS OF ROR GAMMA” (Boehringer Ingelheim International GmbH, priority 2014, dated 2015).

Target: T1, RORγ (Homo sapiens, UniProt P51449)
T1 construct: expressed in transfected cells; host or cells: HEK 293 cells, transiently transfected
T1 sequence (P51449 269-508 limits assumed): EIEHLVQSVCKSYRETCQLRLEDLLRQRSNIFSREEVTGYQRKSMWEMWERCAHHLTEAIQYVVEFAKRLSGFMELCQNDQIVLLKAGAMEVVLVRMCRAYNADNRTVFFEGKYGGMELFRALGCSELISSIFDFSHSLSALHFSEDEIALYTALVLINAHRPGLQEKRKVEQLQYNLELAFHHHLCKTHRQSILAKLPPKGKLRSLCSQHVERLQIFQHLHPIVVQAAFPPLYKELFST
Test: Reporter Gene Assay (RGA): nuclear receptor transactivation assay, inhibition of RORγ transactivation of a luciferase reporter in transiently transfected HEK 293 cells
Assay type: cell-based
Settings: not given

SMILES | IC50 [nM]
CCc1ncnc(C2CC2)c1-c1ncc2nc(NCc3ccc(S(C)(=O)=O)cc3)c(=O)n([C@H](C)CC)c2n1 [Example 191] | 86

Same assay, conditions: read-out: RGA IC50

SMILES | IC50 [nM]
Cc1ncnc(C2CC2)c1-c1ncc2nc(NCc3ccc(C(=O)O)cc3)c(=O)n([C@@H](C)C3CC3)c2n1 [Example 200] | 855
CCS(=O)(=O)N[C@H]1C[C@H](CNc2nc3cnc(-c4c(C)ncnc4C4CC4)nc3n([C@@H](C)C3CC3)c2=O)C1 [Example 202] | 455
CCc1ncnc(C2CC2)c1-c1ncc2nc(NCc3ccc(S(C)(=N)=O)cc3)c(=O)n([C@@H](C)C3CC3)c2n1 (some centres unmarked) [Example 210] | 150
CCS(=O)(=O)N1CC[C@@H](CNc2nc3cnc(-c4c(C)ncnc4C4CC4)nc3n([C@@H](C)C3CC3)c2=O)C1 [Example 211] | 225
Cc1ncnc(C2CC2)c1-c1ncc2nc(NCc3ccc4c(c3)CCS4(=O)=O)c(=O)n([C@@H](C)C3CC3)c2n1 [Example 212] | 120
COC(=O)c1ccc(CNc2nc3cnc(-c4c(C)ncnc4C4CC4)nc3n([C@@H](C)C3CC3)c2=O)cc1 [Example 216] | 1380
CCS(=O)(=O)c1ccc(CNc2nc3cnc(-c4c(C)nc(N)nc4C4CC4)nc3n([C@@H](C)C3CC3)c2=O)nc1 [Example 217] | 160
CC[C@@H](C)n1c(=O)c(NCc2ccc(S(=O)(=O)CC)nc2)nc2cnc(-c3c(C4CC4)ncnc3C3CC3)nc21 [Example 224] | 120
CO[C@H]1CCC[C@@H]1n1c(=O)c(NCc2ccc(S(C)(=O)=O)cc2)nc2cnc(-c3c(C)ncnc3C3CC3)nc21 [Example 229] | 530
COc1ncnc(C2CC2)c1-c1ncc2nc(NCc3ccc(S(C)(=O)=O)cc3)c(=O)n([C@H]3CCC[C@@H]3OC)c2n1 [Example 230] | 270
Cc1ncnc(C2CC2)c1-c1ncc2nc(NCc3ccc(S(C)(=N)=O)cc3)c(=O)n([C@@H](C)C3CCC3)c2n1 (some centres unmarked) [Example 232] | 180

Continued, values first:

IC50 [nM] | SMILES
155 | CCS(=O)(=O)c1ccc(CNc2nc3cnc(-c4c(C)nc(N)nc4C4CC4)nc3n([C@H](C)C3CCC3)c2=O)nc1 [Example 233]
425 | CC[C@@H](C)n1c(=O)c(NCc2ccc(S(N)(=O)=O)cn2)nc2cnc(-c3c(C)ncnc3C3CC3)nc21 [Example 235]
185 | CC[C@@H](C)n1c(=O)c(NCc2ccc(S(N)(=O)=O)cn2)nc2cnc(-c3c(OC)ncnc3C3CC3)nc21 [Example 236]
205 | CNS(=O)(=O)c1ccc(CNc2nc3cnc(-c4c(OC)ncnc4C4CC4)nc3n(C3CCC3)c2=O)nc1 [Example 239]
310 | COc1ncnc(C2CC2)c1-c1ncc2nc(NCc3ccc(S(C)(=O)=O)cn3)c(=O)n(C3CCC3)c2n1 [Example 241]
395 | Cc1ncnc(C2CC2)c1-c1ncc2nc(NCc3ccc(S(C)(=O)=O)cn3)c(=O)n(C3CCC3)c2n1 [Example 242]
385 | Cc1ncnc(C2CC2)c1-c1ncc2nc(NCc3ccc(S(C)(=O)=O)cn3)c(=O)n(CC3CC3)c2n1 [Example 247]
158 | CCc1nc(N)nc(C2CC2)c1-c1ncc2nc(NCc3ccc(S(=O)(=O)C4CC4)cn3)c(=O)n([C@@H](C)C3CC3)c2n1 [Example 251]
325 | CCS(=O)(=O)c1ccc(CNc2nc3cnc(-c4c(C)ncnc4C4CC4)nc3n(CC(C)C)c2=O)nc1 [Example 252]
455 | Cc1ncnc(C2CC2)c1-c1ncc2nc(NCc3ccc(S(N)(=O)=O)cn3)c(=O)n(CC(C)C)c2n1 [Example 254]
285 | COc1ncnc(C2CC2)c1-c1ncc2nc(NCc3ccc(S(N)(=O)=O)cn3)c(=O)n(CC(C)C)c2n1 [Example 255]
